Where two headings read alike, the source gives them in different places.
Columns and labels:
P. falciparum strain 3D7 = assay: Antimalarial activity, P. falciparum lactate dehydrogenase growth inhibition assay; type: cell-based, Plasmodium falciparum; conditions: for IC50: Plasmodium falciparum
Procedure: Parasites of the P. falciparum strain 3D7 were grown in fresh group 0 positive human erythrocytes, obtained from the Centro Regional de Transfusion Sanguínea-SAS (Granada, Spain) and suspended at 5% haematocrit in RPMI 1640 containing 2% human serum, 0.2% NaHCO3, 0.5% Albumax II, 150 μM hypoxanthine, and […] gentamicin. Flasks were incubated at 37 °C, under 5% CO2 and 95% air mixture. […] The stock culture was then diluted with complete medium and non-parasitized erythrocytes to yield a haematocrit of 2% and parasitemia of 0.25%. Stock solutions of the test drugs were prepared at an initial concentration of 200 mM in DMSO, serially diluted and dispensed into triplicate in 96-well plates to yield final concentrations ranging from 0.0039 to 2 μM. The final well volume was 200 μL with a final concentration of DMSO 0.001%. Each plate also included positive growth controls, where only medium were added, and negative growth controls with 100 nM of chloroquine. […] A multidrop dispenser was used to add 50 μL of synchronized parasite culture per well. After 72 h of growth in presence of test compounds, the plates were stored frozen at −20 °C for at least 24 h. Next, they were thawed at room temperature. Parasite growth inhibition assays and IC50 determinations were carried out following the P. falciparum lactate dehydrogenase assay where parasite viability is quantified by measuring LDH activity upon APAD+ addition, a cofactor that is specific to the Plasmodium enzyme. To evaluate LDH activity, 140 μL of freshly made reaction mix, containing 143 mM sodium L-lactate, 143 μM APAD, 178.75 μM NBT, 1 U/mL diaphorase, 0.7% Tween 20 and 100 mM Tris-HCl (pH 8.0) were dispensed into plates. After 10 min of incubation in the dark at room temperature, absorbance was measured at 630 nm with a vmax precision multiwell plate reader from Molecular Devices, by using the accompanying SOFT maxPro software for analysis.

PfCK = biological target: T1, PfCK (Plasmodium falciparum, UniProt Q8IM71); assay: Spectrophotometric coupled enzymatic assay for PfCK activity (substrate choline); type: biochemical; conditions: for remaining activity at 25 µM: read-out: PfCK Fractional Activity at 25 µM; for IC50: IC50 PfCK b (compound concentration required to inhibit PfCK enzyme by 50%), substrate choline 4 mM, ATP 2 mM
T1 construct: A truncated form of PfCK (Δ79-440) featuring an N-terminal 6× His-tag; 6xHis (N); host or cells: Escherichia coli BL21 (DE3) Star
T1 sequence (Q8IM71 entry or part of it): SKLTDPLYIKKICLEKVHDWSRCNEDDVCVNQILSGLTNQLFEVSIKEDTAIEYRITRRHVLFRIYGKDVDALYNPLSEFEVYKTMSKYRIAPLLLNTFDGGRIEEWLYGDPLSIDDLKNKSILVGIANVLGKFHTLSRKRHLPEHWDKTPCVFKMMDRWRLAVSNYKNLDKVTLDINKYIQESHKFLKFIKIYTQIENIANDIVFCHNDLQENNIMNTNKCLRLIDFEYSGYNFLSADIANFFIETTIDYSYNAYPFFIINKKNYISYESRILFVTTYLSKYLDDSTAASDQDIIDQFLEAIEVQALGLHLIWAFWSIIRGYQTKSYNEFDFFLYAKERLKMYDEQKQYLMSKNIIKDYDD
Procedure: A truncated form of PfCK (Δ79-440) featuring an N-terminal 6× His-tag was purchased from Genescript (Piscataway, NJ, USA), cloned into a pET-28a vector and transformed into Escherichia coli BL21 (DE3) Star cells (Invitrogen, Carlsbad, CA, USA). The transformed bacteria were cultured in Luria-Bertani (LB) medium at 37 °C until OD600 = 0.6 and the expression was induced with 1 mM isopropyl β-D-1-thiogalactopyranoside (IPTG). The cell culture was grown overnight at 20 °C and 180 rpm. Cells were pelleted by centrifugation at 10,000 rpm, resuspended in 50 mM Tris/HCl pH 7.5, 500 mM NaCl, 0.2 mM phenylmethylsulphonyl fluoride (PMSF, Sigma Aldrich, St. Luis, MO, USA), DNase (Sigma Aldrich, St. Luis, MO, USA), 0.5 mM β-mercaptoethanol (Sigma Aldrich, St. Luis, MO, USA) and sonicated. Separation of the soluble from the insoluble fraction was obtained by centrifugation at 15,000 rpm and 4 °C. The target enzyme was purified by a two-step purification protocol. In the first step, the cell lysate was incubated for 45 min with Ni-NTA resin (Qiagen, Venlo, The Netherlands) in a gravity column. Then, the column was washed with 40 column volumes (CV) of 50 mM Tris/HCl pH 7.5, 300 mM NaCl, 10 mM imidazole and 1 CV of 50 mM Tris/HCl pH 7.5, 300 mM NaCl, 40 mM imidazole. Finally, the His-tagged enzyme was eluted from the column using a 50 mM Tris/HCl pH 7.5, 300 mM NaCl, 400 mM imidazole buffer. A subsequent size-exclusion chromatography step was implemented to further polish the sample using a HiPrep 26/60 Sephacryl 100 HR column (GE Healthcare, Little Chalfont, Buckinghamshire, UK) previously equilibrated with 20 mM Tris/HCl pH 7.5, 150 mM NaCl buffer. This second purification step afforded a pure protein sample. The protein production yield was estimated to be nearly 2.5 mg of recombinant enzyme per liter of bacterial culture.
A spectrophotometric 96-well plate assay for PfCK activity was established based on an assay previously described. The reaction mix was composed as follows: 100 mM Tris/HCl pH 7.5, 100 mM KCl, 10 mM MgCl2, 0.5 mM phosphoenolpyruvate, 0.25 mM NADH, 4 U of pyruvate kinase, 5 U lactate dehydrogenase, 2 mM ATP, 4 mM choline chloride and different concentrations of the selected compounds. All the necessary compounds for the assay were purchased from Sigma Aldrich (St. Luis, MO, USA) and the final assay volume was 200 μL. The enzymatic reaction was initiated by the addition of the enzyme at less than 10 nM concentration and the reaction rates were measured by monitoring the decrease in the absorbance at 340 nm for 20 min at room temperature using a Spark10M instrument (Tecan). Finally, the IC50 values for each compound were determined by plotting the enzyme fractional activity (f.a.) against the logarithm of compound concentration (log[I]). Curve-fitting was performed with a dose-response curve from Origin (OriginLab Corporation, Northampton, MA, USA), using the following equation: f.a.=1/1+10^logIC50−logI
All data points were collected in triplicate and the final dose-response curves were plotted with MATLAB (R2018a (9.4.0.813654), 2018, MathWorks, Natick, MA, USA). See curves in Figure S1 in Supplementary Materials.

[1] = Erythrocyte, P. falciparum 3D7 in human erythrocytes, 72 h, LDH readout, read-out: IC50 a (In vitro IC50 values against P. falciparum)
[2] = 3D7, Erythrocyte, infected erythrocytes, P. falciparum, read-out: antimalarial activity (IC50), as given in the text

| Compound | IC50 (P. falciparum strain 3D7; [1]) | melting point | remaining activity at 25 µM (PfCK) | fold difference in antimalarial activity, bipyridinyl vs biphenylic counterparts (P. falciparum strain 3D7; Fg-13 and Fg-17 vs Fg-14 and Fa-21) | IC50 (P. falciparum strain 3D7; [2]) | IC50 (PfCK) | IC50 (P. falciparum strain 3D7; 3D7, Erythrocyte, 72 h, read-out: IC50 a (In vitro IC50 values against P. falciparum)) | fold decrease in antimalarial activity with respect to the reference compounds BR-23 / BR-25 (P. falciparum strain 3D7; Fg-9, Fa-21, Fg-14 vs BR-23, Ff-1, Ff-7, Ff-3 vs BR-25) |
| --- | --- | --- | --- | --- | --- | --- | --- | --- |
| [Br-].[Br-].c1cc2c(s1)c(N1CCCCC1)nc[n+]2Cc1ccc(CCCCc2ccc(C[n+]3cnc(N4CCCCC4)c4sccc43)cc2)cc1 [Fa-33, 1,1’-((butane-1,4-diylbis(4,1-phenylene))bis(methylene))bis(4-(piperidin-1-yl)thieno[3,2-d]pyrimidin-1-ium) bromide] | 43.9 nM | 276 to 278 °C | 68.8 ± 6.03% | – | – | – | – | – |
| [Br-].[Br-].c1cc2c(N3CCCCC3)nc[n+](Cc3ccc(OCCOc4ccc(C[n+]5cnc(N6CCCCC6)c6ccsc65)cc4)cc3)c2s1 [Ff-5, 1,1′-(((ethane-1,2-diylbis(oxy))bis(4,1-phenylene))bis(methylene))bis(4-(piperidin-1-yl)thieno[2,3-d]pyrimidin-1-ium) bromide] | 22.4 nM | > 280 °C | 91.1 ± 4.27% | – | – | – | – | – |
| [Br-].[Br-].c1cc2c(N3CCCC3)nc[n+](Cc3ccc(-c4ccc(C[n+]5cnc(N6CCCC6)c6ccsc65)cn4)nc3)c2s1 [Fg-13, 1,1’-([2,2’-bipyridine]-5,5’-diylbis(methylene))bis(4-(pyrrolidin-1-yl)thieno[2,3-d]pyrimidin-1-ium) bromide] | 143 nM | 238 to 240 °C | 99.1 ± 12% | > 10 fold | – | – | – | – |
| [Br-].[Br-].c1cc2c(N3CCCC3)nc[n+](Cc3ccc(OCCOc4ccc(C[n+]5cnc(N6CCCC6)c6ccsc65)cc4)cc3)c2s1 [Ff-4, 1,1’-(((ethane-1,2-diylbis(oxy))bis(4,1-phenylene))bis(methylene))bis(4-(pyrrolidin-1-yl)thieno[2,3-d]pyrimidin-1-ium) bromide] | 11.5 nM | 193 to 195 °C | 90.7 ± 4.57% | – | ~11 nM | 37400 ± 3240 nM | – | – |
| [Br-].[Br-].c1cc2c(N3CCCCCC3)nc[n+](Cc3ccc(CCCCc4ccc(C[n+]5cnc(N6CCCCCC6)c6ccsc65)cc4)cc3)c2s1 [Ff-35, (1,1’((butane1,4diylbis(4,1phenylene))bis(methylene))bis(4-(azepan-1-yl)thieno[2,3-d]pyrimidin-1-ium)) bromide] | 48.4 nM | 117 to 119 °C | 57.6 ± 12.3% | – | – | – | – | – |
| [Br-].[Br-].c1cc2c(N3CCCC3)nc[n+](Cc3ccc(CCc4ccc(C[n+]5cnc(N6CCCC6)c6ccsc65)cc4)cc3)c2s1 [Fg-15, 1,1’-((ethane-1,2-diylbis(4,1-phenylene))bis(methylene))bis(4-(pyrrolidin-1-yl)thieno[2,3-d]pyrimidin-1-ium) bromide] | 12.7 nM | 293 to 295 °C | 97.5 ± 9.22% | – | ~11 nM | – | – | – |
| [Br-].[Br-].c1cc2c(s1)c(N1CCCC1)nc[n+]2Cc1ccc(CCc2ccc(C[n+]3cnc(N4CCCC4)c4sccc43)cc2)cc1 [Fg-16, 1,1’-((ethane-1,2-diylbis(4,1-phenylene))bis(methylene))bis(4-(pyrrolidin-1-yl)thieno[3,2-d]pyrimidin-1-ium) bromide] | 20.6 nM | 231 to 233 °C | 79.7 ± 10.3% | – | – | 26500 ± 2440 nM | – | – |
| [Br-].[Br-].c1cc2c(N3CCCCC3)nc[n+](Cc3ccc(-c4ccc(C[n+]5cnc(N6CCCCC6)c6ccsc65)cn4)nc3)c2s1 [Fg-32, 1,1’-([2,2’-bipyridine]-5,5’-diylbis(methylene))bis(4-(piperidin-1-yl)thieno[2,3-d]pyrimidin-1-ium) bromide] | > 250 nM | 267 to 269 °C | 83.8 ± 9.53% | – | – | – | – | – |
| [Br-].[Br-].c1cc2c(N3CCCCCC3)nc[n+](Cc3ccc(-c4ccc(C[n+]5cnc(N6CCCCCC6)c6ccsc65)cn4)nc3)c2s1 [Fg-20, 1,1’-([2,2’-bipyridine]-5,5’-diylbis(methylene))bis(4-(azepan-1-yl)thieno[2,3-d]pyrimidin-1-ium) bromide] | 97.6 nM | 289 to 291 °C | 96.6 ± 13.1% | – | – | – | – | – |
| [Br-].[Br-].c1cc2c(s1)c(N1CCCCCC1)nc[n+]2Cc1ccc(CCCCc2ccc(C[n+]3cnc(N4CCCCCC4)c4sccc43)cc2)cc1 [Fa-29, (1,1’((butane1,4diylbis(4,1phenylene))bis(methylene))bis(4-(azepan-1-yl)thieno[3,2-d]pyrimidin-1-ium)) bromide] | – | 268 to 270 °C | 46.7 ± 9.49% | – | – | 4640 ± 200 nM | 55.6 nM | – |
| [Br-].[Br-].c1cc2c(s1)c(N1CCCC1)nc[n+]2Cc1ccc(CCCCc2ccc(C[n+]3cnc(N4CCCC4)c4sccc43)cc2)cc1 [Ff-7, 1,1’-((butane-1,4-diylbis(4,1-phenylene))bis(methylene))bis(4-(pyrrolidin-1-yl)thieno[3,2-d]pyrimidin-1-ium) bromide] | 21.9 nM | 215 to 217 °C | 55 ± 4.07% | – | – | 13300 ± 3820 nM | – | 10 fold |
| [Br-].[Br-].c1cc2c(s1)c(N1CCCCC1)nc[n+]2Cc1ccc(OCCOc2ccc(C[n+]3cnc(N4CCCCC4)c4sccc43)cc2)cc1 [Fa-28, 1,1′-(((ethane-1,2-diylbis(oxy))bis(4,1-phenylene))bis(methylene))bis(4-(piperidin-1-yl)thieno[3,2-d]pyrimidin-1-ium) bromide] | 47.1 nM | 198 to 200 °C | 84.4 ± 7.53% | – | – | – | – | – |
| [Br-].[Br-].c1cc2c(s1)c(N1CCCCC1)nc[n+]2Cc1ccc(CCc2ccc(C[n+]3cnc(N4CCCCC4)c4sccc43)cc2)cc1 [Fa-25, 1,1’-((ethane-1,2-diylbis(4,1-phenylene))bis(methylene))bis(4-(piperidin-1-yl)thieno[3,2-d]pyrimidin-1-ium) bromide] | 34.7 nM | 314 to 316 °C | – | – | – | – | – | – |
